Assay [1] has as its system human multiple myeloma cells KMS-11. Briefly: Activity test on human multiple myeloma cells KMS-11 (CCK-8, GI50). The class given is cell-based. The conditions noted are these: KMS-11 cells, 48 h incubation. The procedure:
Cells KMS-11 (human multiple myeloma cells from JCRB ((Japanese Collection of Research Bioresources Cell Bank), AJCRB1179) were cultured to logarithmic growth phase in RPMI 1640 medium containing 10% fetal bovine serum at 37° C. and 5% CO2. The cells were inoculated into a 96-well culture plate in proper quantity per well. After being cultured at 37° C. and 5% CO2 for 24 h, solvent control DMSO or test compounds dissolved in DMSO were added to the cells, wherein the starting concentration of the test compound was 0.3 μM, and diluted 3-fold each time for a total of 6 times to obtain 6 concentration gradients. The cells were incubated with the test compounds at 37° C. and 5% CO2 for 48 h. CCK-8 reagent was added to each well and the cells were incubated at 37° C. for 2 h according to the reagent instructions, and the optical density value of each well was read with spectrophotometer at 450 nm wavelength.
The optical density value of the cell was set as Tz value when the drug had null action on the cell, which represented the cell value when the drug was added. The optical density value of the cells was set as C value after the cells were acted by solvent control DMSO for 48 h; and the optical density value of the cell was set as Ti value after the cells were acted by the test compounds for 48 h. According to the method proposed by NIH—NCI in the United States, the cell response to drugs was calculated as follows: [(Ti−Tz)/(C−Tz)]×100 when Ti≥Tz; [(Ti−Tz)/Tz]×100 when Ti<Tz. According to the above calculation, the GI50 value (the concentration of the test compound as required when the cell growth inhibition rate was […]) was calculated by using the 4-parameter logistic model in XLfit software.

Assay [2] has as its system transplantation tumor of human multiple myeloma MM.1S. Description: Transplantation tumor model of human multiple myeloma cells MM.1S in CB17-SCID mouse, dose 0.00831 mmol/kg (Activity Experiment Example 2). The class given is in vivo. The conditions noted are these: for Relative tumor proliferation rate T/C(%): 0.00831 mmol/kg oral gavage twice a week. On the procedure:
The model used in this experiment was the transplantation tumor model of human multiple myeloma cells line MM.1 S in CB17-SCID mouse (purchased from Beijing Weitong Lihua Experimental Animal Technology Co., Ltd.). Cryopreserved MM.1S cells were cultured in vitro by conventionally way after resuscitation. The cells were collected in logarithmic growth phase and diluted with serum-free culture medium or PBS to form a tumor cell suspension with a concentration of 5×10^7/ml. The tumor cell suspensions prepared above were taken with a 1 ml syringe and injected subcutaneously into the left armpit backrest side of the mouse, and 0.2 ml was injected into each inoculation site. About 1 to 2 weeks after the cultured tumor cells were injected into CB17-SCID mouse, the tumors were touched under the armpit. When the tumor volume was more than 100 mm^3, the tumor volume was measured and calculated, and the mice were randomly divided into groups according to the tumor volume. The administration doses of different test samples were equivalent doses on a molar basis with a specific dose of 0.00831 mmol/kg. Administration mode and frequency: The test samples were administered by oral gavage with a volume of 10 ml/kg. The model group was given equal volume of solvent. The test samples were administered twice a week for five times (with administration dose of 0.00831 mmol/kg, i.e., the dose of MLN9708 being 4.30 mg/kg, the dose of the compound 6a being 4.67 mg/kg, and the dose of the compound 6b being 4.53 mg/kg) for a duration of 19 days. The administration was conducted on the 1st, 4th, 8th, 11th and 15th day, and the experiment was finished on the 19th day. The mental state, activity, eating and other general conditions of mice were observed every day, and the weight was measured twice a week. The short diameter (a) and long diameter (b) of each mouse tumor were measured with vernier caliper twice a week, and the tumor volume was calculated according to formula (a^2×b)/2. The relative tumor volume (RTV) was calculated according to the measured tumor volume, RTV=Vt/V0. Wherein, V0 was the tumor volume when random grouping (i.e. d0) and Vt was the tumor volume at each measurement (i.e. dn). According to the following formula, evaluation index of anti-tumor activity, the relative tumor proliferation rate T/C (%), was calculated: Note: TRTV is RTV of treatment group, and CRTV is RTV of model control group. Efficacy evaluation standard is T/C %≤40%, and after statistics procession, p<0.05 is considered significant. On the 19th day, after the tumor was weighted and measured, the mice in each group were killed, and the tumor was dissected and weighed. According to the tumor weight, the tumor inhibition rate (TGI) was calculated, TGI=((average tumor weight of model group−average tumor weight of administration group)/average tumor weight of model group)×100%.

Assay [3] shares this test system. Briefly: Transplantation tumor model of human multiple myeloma cells MM.1S in CB17-SCID mouse, low dose 0.00554 mmol/kg (Activity Experiment Example 4). It is filed as in vivo. To be noted: for Relative tumor proliferation rate T/C(%): 0.00554 mmol/kg oral gavage twice a week. The procedure:
The model used in this experiment was the transplantation tumor model of human multiple myeloma cells line MM.1S in CB17-SCID mouse. Cryopreserved MM.1S cells were cultured in vitro conventionally after resuscitation. The cells were collected in logarithmic growth phase and diluted with serum-free culture medium or PBS to form a tumor cell suspension with a concentration of 5×10^7/ml. The tumor cell suspensions prepared above were taken with a 1 ml syringe and injected subcutaneously into the left armpit backrest side of the mouse, and 0.2 ml was injected into each inoculation site. About 1 to 2 weeks after the cultured tumor cells were injected into the CB17-SCID mouse, the tumors were touched under the armpit. When the tumor volume was more than 100 mm^3, the tumor volume was measured and calculated, and the mice were randomly divided into groups according to the tumor volume. The administration doses of different test samples were equivalent doses on a molar basis with a specific dose of 0.00554 mmol/kg. Administration mode and frequency: the test samples were administered by oral gavage with a volume of 10 ml/kg. The model group was given equal volume of solvent. The test samples were administered twice a week for five times with an administration dose of 0.00554 mmol/kg, i.e., the dose of MLN9708 being 2.86 mg/kg, the dose of the compound 6q being 2.77 mg/kg, the dose of the compound 6f being 2.80 mg/kg, and the dose of the compound 6b being 3.02 mg/kg, for a duration of 17 days. The administration was conducted on the 1st, 5th, 8th, 12th and 15th day, and the experiment was finished on the 17th day. The mental state, activity, eating and other general conditions of mice were observed every day, and the weight was measured twice a week. The short diameter (a) and long diameter (b) of each mouse tumor were measured with a vernier caliper twice a week, and the tumor volume was calculated according to formula (a^2×b)/2. The relative tumor volume (RTV) was calculated according to the measured tumor volume, RTV=Vt/V0. Wherein, V0 was the tumor volume when random grouping (i.e. d0) and Vt was the tumor volume at each measurement (i.e. […]). According to the following formula, evaluation index of anti-tumor activity relative to the relative tumor proliferation rate T/C (%) was calculated: Note: TRTV is RTV of treatment group, and CRTV is RTV of model control group. According to “Technical Guidelines for Non-clinical Research of Cytotoxic Antitumor Drugs” issued by State Food and Drug Administration in China, the evaluation standard is T/C %≤40%, and after statistics procession, p<0.05 is considered significant. On the 19th day, after the tumor was weighted and measured, the mice in each group were killed, and the tumor was dissected and weighed. According to the tumor weight, the tumor inhibition rate (TGI) was calculated, TGI=((average tumor weight of model group−average tumor weight of administration group)/average tumor weight of model group)×100%.

The subject of assay [4] is human multiple myeloma cells RPMI-8226. Briefly: Activity test on human multiple myeloma cells RPMI-8226 (CCK-8, GI50). The class given is cell-based. To be noted: RPMI 8226 cells, 48 h incubation. On the procedure: (§1) Cells RPMI-8226 (human multiple myeloma cells from ATCC (American type culture collection), ATCC CCL-155) and cells MM.1S (human multiple myeloma cells from ATCC (American type culture collection), ATCC CRL-2974) were cultured to logarithmic growth phase in RPMI 1640 medium containing 10% fetal bovine serum at 37° C. and 5% CO2. The cells were inoculated into 96-well culture plates in proper quantity per well. After culturing at 37° C. and 5% CO2 for 24 h, solvent control DMSO or test compounds dissolved in DMSO were added to the wells, wherein the starting concentration of the test compounds were […], and diluted 3-fold each time for a total of 6 times to obtain 6 concentration gradients. The cells were incubated together with the test compounds at 37° C. and 5% CO2 for 48 h. CCK-8 reagent was added to each well and the cells were incubated at 37° C. for 2 h according to the reagent instructions, and the optical density value of each well was read with spectrophotometer at 450 nm wavelength.
(§2) The optical density value of the cells was set as Tz value when the drugs had null action on the cell, which represented the cell value when the drugs were added. The optical density values of the cells were set as C value after the cells were acted by solvent control DMSO for 48 h; and the optical density values of the cell were set as Ti value after the cells were acted by the test compounds for 48 h. According to the method proposed by NIH—NCI in the United States, the cells' response to drugs was calculated as follows: [(Ti−Tz)/(C−Tz)]×100 when Ti≥Tz; [(Ti−Tz)/Tz]×100 when Ti<Tz. According to the above calculation, the GI50 value (the concentration of the test compound required when the cell growth inhibition rate was 50%) was calculated by using the 4-parameter logistic model in XLfit software.

Assay [5] deals with human multiple myeloma cells MM.1S. Description: Activity test on human multiple myeloma cells MM.1S (CCK-8, GI50). It is filed as cell-based. The conditions noted are these: MM1.S, MM.1S cells, 48 h incubation. The procedure: as §1, §2

Where a name gives a salt, the structure may show the parent alone.

By GI50 is commonly meant the concentration at which growth is held to half of that of the control. The low end stands for greater sensitivity of the cells, the high end for lower sensitivity of the cells. In turn, `CC(C)C[C@H](NC(=O)CNC(=O)c1cc(Br)ccc1F)B(O)O` displayed a GI50 in assay [1] of 35.7 nM.
The same measure, in the same setting: the result for `CC(C)C[C@H](NC(=O)CNC(=O)c1cc(Br)ccc1F)B1OC(=O)c2ccccc2O1` reads 34.1 nM; that for `Cc1ccc(F)c(C(=O)NCC(=O)N[C@@H](CC(C)C)B2OC(=O)C(CC(=O)O)(CC(=O)O)O2)c1`, 90.5 nM; that for `CC(C)C[C@H](NC(=O)CNC(=O)c1cc(F)ccc1F)B1OC(=O)C(CC(=O)O)(CC(=O)O)O1`, 87.8 nM.
Turning to `CC(C)C[C@H](NC(=O)CNC(=O)c1cc(Cl)ccc1Cl)B1OC(=O)C(CC(=O)O)(CC(=O)O)O1` [MLN9708, Ixazomib Citrate, reference compound], the “tumor weight (g)” value in assay [2] (X ± SD, tumor dissected on day 19, 0.00831 mmol/kg oral gavage, five doses) is listed as 1.782 ± 1.361^★★▴▴ g. Also, the “Relative tumor proliferation rate T/C(%)” value came out at 84.97% in assay [2] (day 4); 59.75% in assay [2] (day 8); 51.05% in assay [2] (day 11); 41.67% in assay [2] (day 15); 56.1% in assay [2] (day 19); 90.08% in assay [3] (day 5). The “Relative tumor proliferation rate T/C(%)” value in assay [3] (day 8) was 112.42%; in assay [3] (day 12), 137.07%; in assay [3] (day 15), 97.25%; in assay [3] (day 17), 84.29%. Moreover, the “tumor inhibition rate (%)” value in assay [2] (from tumor weight, day 19, 0.00831 mmol/kg oral gavage, five doses) is recorded as 50.69%; in assay [3] (from tumor weight at end of experiment, 0.00554 mmol/kg oral gavage, five doses) it was −0.48%. Moreover, in assay [3] (0.00554 mmol/kg oral gavage), the “inhibition of tumor growth (in words)” value is “no effect on inhibiting tumor growth”. In addition, the “inhibitory effect sequence on transplantation tumor growth from strong to weak” value in assay [3] (0.00554 mmol/kg oral gavage) turned out to be 6b>6f>6q>MLN9708. Moreover, the “tumor weight” value in assay [3] (X ± SD, tumor dissected at end of experiment, 0.00554 mmol/kg oral gavage, five doses) was 2.953 ± 0.668 g.
As to `CC(C)C[C@H](NC(=O)CNC(=O)c1cc(Br)ccc1Cl)B1OC(=O)C(CC(=O)O)(CC(=O)O)O1` [drawing 60], the values for the concentration for 50% growth inhibition (GI50) in assay [4] and in assay [5] were 0.0107 µM and 0.0133 µM, respectively.
Take `CC(C)C[C@H](NC(=O)CNC(=O)c1cc(Br)ccc1F)B1OC(=O)C(CC(=O)O)(CC(=O)O)O1` [drawing 61]: the GI50 in assay [4] is 0.012 µM; in assay [5], 0.0112 µM.
As for `CC(C)C[C@H](NC(=O)CNC(=O)c1cc(C(F)(F)F)ccc1F)B1OC(=O)C(CC(=O)O)(CC(=O)O)O1` [drawing 62], the results for the GI50 in assay [4] and in assay [5] were 0.0182 µM and 0.026 µM, respectively.
For `CC(C)C[C@H](NC(=O)CNC(=O)c1cc(Cl)ccc1Cl)B1OC(=O)C(CC(=O)O)(CC(=O)O)O1` [drawing 63], the GI50 in assay [4] was found to be 0.0122 µM; in assay [5], 0.0128 µM.
Consider `CC(C)C[C@H](NC(=O)CNC(=O)c1cc(F)ccc1Br)B1OC(=O)C(CC(=O)O)(CC(=O)O)O1` [drawing 64], for which the GI50 in assay [4] was determined as 0.0134 µM; in assay [5], 0.012 µM.
Consider `CC(C)C[C@H](NC(=O)CNC(=O)c1cc(Br)ccc1F)B1OC(=O)C(CC(=O)O)(CC(=O)O)O1` [drawing 66], for which the GI50 in assay [1] turned out to be 39.7 nM.
Same read-out and setting: the result for `CC(C)C[C@H](NC(=O)CNC(=O)c1cc(C(F)(F)F)ccc1F)B1OC(=O)C(CC(=O)O)(CC(=O)O)O1` [drawing 67] reads 57.8 nM.
In turn, `CC(C)C[C@H](NC(=O)CNC(=O)c1cc(Br)ccc1F)B1OC(=O)C(c2ccccc2)O1` (some centres unmarked) [drawing 69] returned a GI50 in assay [1] of 29.9 nM.
Consider `CC(C)C[C@H](NC(=O)CNC(=O)c1cc(F)ccc1Br)B1OC(=O)C(CC(=O)O)(CC(=O)O)O1` [drawing 70], for which the GI50 in assay [1] turned out to be 35.7 nM.
For `CC(C)C[C@H](NC(=O)CNC(=O)c1cc(Cl)ccc1F)B1OC(=O)C(CC(=O)O)(CC(=O)O)O1` [drawing 71], the GI50 in assay [1] worked out at 59 nM.

Source of the values: patent publication US12157749B2, “Borate-based drug and use thereof” (Chengdu Origin Biotechnology Limited Company, priority 2018, dated 2024).
